# From patent publication US20050282818A1, “Ubiquitin ligase inhibitors” (Rigel Pharmaceuticals, Inc., priority 2004, published 2005)
# Columns and labels:
# APC11/APC2 = APC11/APC2 (Homo sapiens, UniProt Q9NYG5+Q9UJX6); assay: APC-11/APC-2 ligase assay (APC auto ubiquitination); format: biochemical; conditions: APC assay
# Method: For the assays described below, the TRAF6/Uev1A/UBC13 assay is the biochemical plate-based assay of TRAF6 ligase activity using Ubc13 as the E2 enzyme. The gel-based assay is the biochemical solution-based TRAF6 ligase assay (by SDS-PAGE and Western blot) to confirm the plate-based ELISA assay. The APC assay is an assay which is another E3 ligase (APC2/APC11) biochemical assay.
# E3 (His APC11/APC2— “APC”) auto ubiquitination was measured as described in U.S. patent application Ser. No. 09/826,312 (Publication No. U.S. 2002 0042083 A1), which is incorporated by reference in its entirety. Details of the protocol are described below. Activity in the presence of the compound was determined relative to a parallel control in which only DMSO was added. Values of the IC50 were typically determined using 6 or 8 different concentrations of the compound, although as few as 2 concentrations may be used to approximate the IC50 value.
# Nickel coated 96 well plates (Pierce 15242) were blocked for 1 hour with 100 μl of blocking buffer at room temperature. The plates were washed 4 times with 225 μl of 1 […]PBS and 80 μl of the reaction buffer were added that contained 100 ng/well of Flag ubiquitin. To this, 10 μl of the test compound diluted in DMSO were added. After the test compound was added, 10 μl of E1 (human), E2 (Ubch5c), and APC in Protein Buffer was added to obtain a final concentration of 5 ng/well of E1, 20 ng/well of E2 and 100 ng/well of APC. The plates were shaken for 10 minutes and incubated at room temperature for 1 hour. After incubation, the plates were washed 4 times with 225 μl of 1×PBS and 100 μl/well of Antibody Mix were added to each well. The plates were incubated at room temperature for another hour after which they were washed 4 times with 225 μl of 1×PBS and 100 μl/well of Lumino substrate were added to each well. The luminescence was measured by using a BMG luminescence microplate reader. The Blocking Buffer (1% Casein in 1×PBS) was stored at 4° C. until use.
# The reaction buffer consisted of 62.5 mM Tris pH 7.6 (Trizma Base—Sigma T 8524), 3 mM MgCl2 (Magnesium Chloride—Sigma M 2393), 1 mM DTT (Sigma D 9779), 2.5 mM ATP (Roche Boehringer Mann Corp. 635 316), 100 ng/well of Flag ubiquitin, 0.1% BSA (Sigma A 7906), and 0.05% Tween 20 (Sigma P 7949).
# The Protein Buffer consisted of 20 mM Tris pH 7.6, 10% glycerol (Sigma G 5516) and 1 mM DTT.
# The antibody mix consisted of 0.25% BSA (Sigma A 7906) in 1×PBS, 1/50,000 anti Flag (Sigma F 3165), 1/100,000 of anti Mouse IgG HRP (Jackson Imrunoresearch #115 035 146).
# The substrate mix consisted of SuperSignal Substrate from Pierce (catalog number 37070ZZ) and was prepared by mixing 100 ml of the peroxide solution, 100 ml of the enhancer solution and 100 ml of Milli Q® water.
# TRAF6/Uev1A/Ubc13 = target: T1, TRAF6/Uev1A/Ubc13 (Homo sapiens, UniProt Q9Y4K3); assay: TRAF6/Uev1A/Ubc13 plate-based ubiquitin ligase assay; format: biochemical
# T1 sequence (Q9Y4K3 1-522): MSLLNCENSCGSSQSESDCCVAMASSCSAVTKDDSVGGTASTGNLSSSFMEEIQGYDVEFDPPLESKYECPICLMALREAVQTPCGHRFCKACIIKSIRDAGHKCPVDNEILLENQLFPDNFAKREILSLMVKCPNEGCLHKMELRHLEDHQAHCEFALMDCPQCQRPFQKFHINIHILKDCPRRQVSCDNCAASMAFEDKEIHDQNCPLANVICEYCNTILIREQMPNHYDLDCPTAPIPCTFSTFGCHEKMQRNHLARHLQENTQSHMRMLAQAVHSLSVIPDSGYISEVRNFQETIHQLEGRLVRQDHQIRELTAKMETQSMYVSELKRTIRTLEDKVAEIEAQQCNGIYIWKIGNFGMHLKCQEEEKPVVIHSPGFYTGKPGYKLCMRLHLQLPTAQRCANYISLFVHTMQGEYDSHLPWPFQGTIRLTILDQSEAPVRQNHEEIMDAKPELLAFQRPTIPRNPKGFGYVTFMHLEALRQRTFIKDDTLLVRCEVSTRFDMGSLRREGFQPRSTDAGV
# How it was run: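 Ligase activity was read as luminescence from anti-Flag/HRP detection of Flag-ubiquitin bound to casein-blocked Ni-plates alongside His-ubiquitin after a 1 h room-temperature reaction. Buffer: 62.5 mM Tris pH 7.5, 6.25 mM MgCl2, 1.0 mM DTT, 2 μM ATP; E1, Uev1a/Ubc13 and TRAF6 added last to start. IC50s derived across compound concentrations.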
# [1] = system: ICAM-1 expression in A549 cells; assay: ICAM assay (IL-1 induced ICAM-1/CD54 expression in A549 cells); format: cell-based, human
# Description: The expression of intercellular adhesion molecule (ICAM)-1 in endothelial cells is pivotal in supporting lymphocyte migration across the vascular endothelium. TNF/IL-1 induces the NF-kB pathway in which NF-kB acts as a transcription factor and activation of NF-kB induces ICAM expression. IkB inhibits NF-KB by binding to it and retaining NF-kB in the cytoplasm. Upon cytokine stimulation, several signaling molecule including TRAF6, IKKs, and TAK1 are activated which lead to the phosphorylation of IkB. Phosphorylated IkB is then ubiquitinated by the SCF complex and degraded by proteasome, thereby releasing NF-kB to translocate into the nucleus. In the nucleus, NF-kB binds to DNA and activates transcription of various genes that are involved in inflammation, cell survival, and apoptosis. The ICAM assay is a primary assay for HTS as well as a cell based assay for TRAF6 inhibitors.
# The following materials are used 96-well plates; F12K complete medium that includes 10% FBS and 1% P/S (penicillin/streptomycin); 1×PBS; 5 ug/ml IL-1, Human CD54 (CALTAG Laboratory, Cat#MHCD5400-4); anti-mouse-IgG (Jackson Lab, Cat#115-035 146); and A549 cells.
# Procedure. 10,000 A549 cells/well were seeded in 100 μl F12K complete medium in a 96-well white plate. The seeded plate was incubate at 37° C. incubator in 5% CO2 overnight. After the overnight incubation, 4 μl of diluted test compound was added and incubated for 1 hour at 37° C. After the 1 hour incubation, 4 μl of 25 ng/ml IL-1 was added to each well and the cells were stimulated at 37° C. for 4 hours.
# After stimulation, the cells were stained with CD54 (1:1000 diluted with medium) and anti-mouse IgG (1:1100 diluted with medium) for 1 hour. Subsequently, the medium was removed and each well was washed with 200 μl of PBS three times. Detection of activity was performed by addition of 100 μl/well of lumino substrate.
# Chain of APC11/APC2 (Q9NYG5 whole entry): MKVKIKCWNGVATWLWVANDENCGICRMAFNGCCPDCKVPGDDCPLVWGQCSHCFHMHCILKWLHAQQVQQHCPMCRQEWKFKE
# Chain of APC11/APC2 (Q9UJX6 whole entry): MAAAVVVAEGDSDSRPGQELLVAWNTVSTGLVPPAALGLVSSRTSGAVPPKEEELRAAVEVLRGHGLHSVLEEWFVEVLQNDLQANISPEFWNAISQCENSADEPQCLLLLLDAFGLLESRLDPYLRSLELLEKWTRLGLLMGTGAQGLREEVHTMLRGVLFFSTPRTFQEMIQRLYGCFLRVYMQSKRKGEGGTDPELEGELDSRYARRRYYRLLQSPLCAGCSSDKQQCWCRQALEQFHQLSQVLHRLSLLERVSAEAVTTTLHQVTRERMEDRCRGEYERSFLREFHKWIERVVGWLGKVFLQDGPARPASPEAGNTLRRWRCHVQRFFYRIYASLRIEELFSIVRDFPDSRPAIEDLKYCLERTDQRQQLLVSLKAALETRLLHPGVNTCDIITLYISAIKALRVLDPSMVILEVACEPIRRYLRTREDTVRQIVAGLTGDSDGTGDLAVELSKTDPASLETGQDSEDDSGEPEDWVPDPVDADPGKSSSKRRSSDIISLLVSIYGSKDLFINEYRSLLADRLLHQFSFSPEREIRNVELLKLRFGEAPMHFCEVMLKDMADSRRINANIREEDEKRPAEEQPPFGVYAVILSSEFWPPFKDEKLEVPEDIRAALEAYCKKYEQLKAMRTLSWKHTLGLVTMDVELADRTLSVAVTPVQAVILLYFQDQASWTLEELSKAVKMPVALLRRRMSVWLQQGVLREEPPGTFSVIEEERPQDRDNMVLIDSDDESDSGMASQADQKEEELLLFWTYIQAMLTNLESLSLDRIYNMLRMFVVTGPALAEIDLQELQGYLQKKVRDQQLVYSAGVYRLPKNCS
IC50 (APC11/APC2) [µM],IC50 (TRAF6/Uev1A/Ubc13) [µM],"IC50 ([1]; Homo sapiens, A549, ICAM assay) [µM]",IC50 ([1]; ICAM assay) [µM],SMILES
≥ 20,≥ 20,≥ 20,–,"Clc1cc(Sc2cccc3cccnc23)cc2nonc12 [compound 336, 8-[(4-chloro-2,1,3-benzoxadiazol-6-yl)thio]quinoline]"
≥ 20,≥ 20,< 1,–,"O=C1OC2(CCN(S(=O)(=O)c3c(Cl)ccc4nonc34)CC2)c2ccccc21 [compound 337, 1′-{[5-chloro-(2,1,3-benzoxadiazol-4-yl)]sulfonyl}-3H-spiro[2-benzofuran-1,4′-piperidin]-3-one]"
≥ 20,≥ 20,1 to 20,–,"O=S(=O)(Nc1ccccc1F)c1ccc(Cl)c2nonc12 [compound 345, 7-chloro-N-(2-fluorophenyl)-2,1,3-benzoxadiazole-4-sulfonamide]"
1 to 20,≥ 20,≥ 20,–,"O=S(=O)(Nc1ccccc1F)c1ccc(Nc2ccccc2F)c2nonc12 [compound 346, N-(2-fluorophenyl)-7-(2-fluorophenylamino)-2,1,3-benzoxadiazole-4-sulfonamide]"
≥ 20,≥ 20,1 to 20,–,"CC(C)c1ccccc1NS(=O)(=O)c1ccc(Cl)c2nonc12 [compound 347, 7-chloro-N-(2-isopropylphenyl)-2,1,3-benzoxadiazole-4-sulfonamide]"
≥ 20,≥ 20,1 to 20,–,"COc1cc(NS(=O)(=O)c2ccc(F)c3nonc23)c(OC)cc1Cl [compound 348, N-(4-chloro-2,5-dimethoxyphenyl)-7-fluoro-2,1,3-benzoxadiazole-4-sulfonamide]"
1 to 20,≥ 20,–,≥ 20,"COc1cc(Nc2ccc(S(=O)(=O)Nc3cc(OC)c(Cl)cc3OC)c3nonc23)c(OC)cc1Cl [compound 349, N-(4-chloro-2,5-dimethoxyphenyl)-7-([4-chloro-2,5-dimethoxyphenyl]amino)-2,1,3-benzoxadiazole-4-sulfonamide]"
≥ 20,≥ 20,1 to 20,–,"Cc1c(NS(=O)(=O)c2ccc(Cl)c3nonc23)cccc1C(F)(F)F [compound 350, 7-chloro-N-(2-methyl-3-[trifluoromethyl]phenyl)-2,1,3-benzoxadiazole-4-sulfonamide]"
≥ 20,≥ 20,1 to 20,–,"Cc1ccc(F)cc1NS(=O)(=O)c1ccc(Cl)c2nonc12 [compound 351, 7-chloro-N-(5-fluoro-2-methylphenyl)-2,1,3-benzoxadiazole-4-sulfonamide]"
≥ 20,≥ 20,1 to 20,–,"Cc1cccc(C(C)C)c1NS(=O)(=O)c1ccc(Cl)c2nonc12 [compound 352, 7-chloro-N-(2-isopropyl-6-methylphenyl)-2,1,3-benzoxadiazole-4-sulfonamide]"
≥ 20,≥ 20,1 to 20,–,"Cc1cccc(C)c1NS(=O)(=O)c1ccc(Cl)c2nonc12 [compound 353, 7-chloro-N-(2,6-dimethylphenyl)-2,1,3-benzoxadiazole-4-sulfonamide]"
≥ 20,≥ 20,1 to 20,–,"Cc1ccc(NS(=O)(=O)c2ccc(Cl)c3nonc23)c(Cl)c1 [compound 354, 7-chloro-N-(2-chloro-4-methylphenyl)-2,1,3-benzoxadiazole-4-sulfonamide]"
≥ 20,≥ 20,≥ 20,–,"Cc1cc(C)c(NS(=O)(=O)c2ccc(Cl)c3nonc23)c(C)c1 [compound 355, 7-chloro-N-mesityl-2,1,3-benzoxadiazole-4-sulfonamide]"
≥ 20,≥ 20,1 to 20,–,"COc1ccccc1NS(=O)(=O)c1ccc(Cl)c2nonc12 [compound 356, 7-chloro-N-(2-methoxyphenyl)-2,1,3-benzoxadiazole-4-sulfonamide]"
≥ 20,≥ 20,≥ 20,–,"O=S(=O)(Nc1c(F)cc(F)cc1F)c1ccc(Cl)c2nonc12 [compound 357, 7-chloro-N-(2,4,6-trifluorophenyl)-2,1,3-benzoxadiazole-4-sulfonamide]"
≥ 20,≥ 20,≥ 20,–,"Cc1cc(F)ccc1NS(=O)(=O)c1ccc(Cl)c2nonc12 [compound 358, 7-chloro-N-(4-fluoro-2-methylphenyl)-2,1,3-benzoxadiazole-4-sulfonamide]"
≥ 20,≥ 20,1 to 20,–,"COc1ccc(OC)c(NS(=O)(=O)c2ccc(Cl)c3nonc23)c1 [compound 359, 7-chloro-N-(2,5-dimethoxyphenyl)-2,1,3-benzoxadiazole-4-sulfonamide]"
≥ 20,≥ 20,1 to 20,–,"COC(=O)c1ccc(Cl)cc1NS(=O)(=O)c1ccc(Cl)c2nonc12 [compound 360, methyl 4-chloro-2-{[(7-chloro-2,1,3-benzoxadiazol-4-yl)sulfonyl]amino}benzoate]"
≥ 20,1 to 20,≥ 20,–,"COC(=O)c1ccc(Cl)cc1Nc1ccc(S(=O)(=O)Nc2cc(Cl)ccc2C(=O)OC)c2nonc12 [compound 361, methyl 4-chloro-2-(7-[N-{5-chloro-2-(methoxycarbonyl)phenyl}sulfamoyl]-2,1,3-benzoxadiazol-4-ylamino)benzoate]"
≥ 20,≥ 20,1 to 20,–,"COc1cc(Cl)c(C)cc1NS(=O)(=O)c1ccc(Cl)c2nonc12 [compound 362, 7-chloro-N-(4-chloro-2-methoxy-5-methylphenyl)-2,1,3-benzoxadiazole-4-sulfonamide]"
